Data from publication PMC3672105, “Identification and Enhancement of HLA-A2.1-Restricted CTL Epitopes in a New Human Cancer Antigen-POTE” (PLoS ONE, 2013).

What follows are sequences tested against T1, HLA-A2 molecule (Homo sapiens, UniProt P04439, D140Y/D185E/D98H/E176V/E277Q/G131W/G231S/I119V/I121R/I166T/I218V/L300P/L318F/N151K/N90K/P208A/P217A/Q86G/Q94H/R138H/R169H/T345S) (assay: T2 binding assay). Details: T2 binding assay, Figure 1A.
T1 construct: endogenous in cells; host or cells: T2 cell line (TAP1/TAP2-deficient)
Experimental: Peptide binding capacity to the HLA-A2 molecule was measured by using the T2 cell line according to a protocol described previously, [22]. T2 cells (3 × 10^5 cells/well) were incubated overnight in 96-well plates with culture medium (1∶1 mixture of RPMI 1640/Eagle-Hank’s amino acid containing 2.5% fetal bovine serum, 100 U/ml penicillin, and 100 µg/ml streptomycin) with 10 µg/ml β2-microglobulin (Sigma) and different titrated concentrations of peptides (starting from 100 µM with 2-fold serial dilution) as shown in the figures to determine the concentration giving a 50% increase in binding (see below). Cells were washed once with cold HBSS containing 0.1% BSA and incubated for 30 min at 4°C with anti-HLA-A2.1 monoclonal antibody (clone BB7.2) (1∶40 dilution from hybridoma supernatant). After washing, cells were stained with FITC-labeled goat anti-mouse immunoglobulin (BD, San Jose, CA), and the level of HLA expression was measured by flow cytometry. HLA-A2 expression was quantified as fluorescence index (FI) according to the following formula: FI = (geometric mean fluorescence intensity with peptide - geometric mean fluorescence intensity without peptide)/geometric mean fluorescence intensity without peptide. Background fluorescence without BB7.2 was subtracted for each individual value. To compare the different peptides, FI0.5, the peptide concentration that increases HLA-A2.1 expression by 50% over no peptide control background, was calculated from the titration curve for each peptide. It should be noted that the FI0.5 provides a relative measure of peptide affinity or potency among peptides compared side by side, but cannot be taken as a thermodynamic affinity.

Sequence | HLA-A2 binder class in words
KILEEIESV [POTE 553–561] | intermediate binders
LLLEQNVDV [POTE 323–331] | strongest binding affinity
KLMAKALLL [POTE 252–260] | intermediate binders
GLTPLLLGV [POTE 272–280] | strongest binding affinity

Same assay, conditions: predicted wild type peptides, Figure 1A; T2 cells overnight with peptide (from 100 µM, 2-fold dilutions) and 10 µg/ml β2-microglobulin; BB7.2 staining, flow cytometry; triplicate

Sequence | FI0.5 (peptide concentration that increases HLA-A2.1 expression by 50% over no peptide control) [µM]
KILEEIESV [POTE 553–561] | 5.6
LLLEQNVDV [POTE 323–331] | 0.8
KLMAKALLL [POTE 252–260] | 1.6
GLTPLLLGV [POTE 272–280] | 0.9

Same assay, conditions: ratio to wild type POTE 252

Sequence | FI0.5 lower (higher affinity) than that of the POTE 252 peptide [fold]
YLMAKALLL [POTE 252-1Y] | ~2
KLMAKALLV [POTE 252-9V] | ~2

Same assay, conditions: ratio to wild type POTE 323

Sequence | FI0.5 better than the wild type peptide
LLFEQNVDV [POTE 323-3F] | approximately 3 fold

Same assay, conditions: wild type and substituted peptides, Figure 1B-D; T2 cells overnight with peptide and 10 µg/ml β2-microglobulin; BB7.2 staining, flow cytometry; triplicate

Sequence | FI0.5 (peptide concentration that increases HLA-A2.1 expression by 50% over no peptide control) [µM]
KILEEIASV [POTE-553-7A] | 0.2
LLAEQNVDV [POTE 323-3A] | 0.4
LLLEQNADV [POTE 323-7A] | 2.78
YLMAKALLL [POTE 252-1Y] | 0.9
YLLEQNVDV [POTE 323-1Y] | 0.25
KLAAKALLL [POTE 252-3A] | 16.9
KLMAKAALL [POTE 252-7A] | 4
KLLEEIESV [POTE 553-2L] | 0.1
LLFEQNVDV [POTE 323-3F] | 0.09
YILEEIESV [POTE 553-1Y] | 0.024
KLMAKALLV [POTE 252-9V] | 0.8

What follows are sequences tested on AAD transgenic mice (assay: Ex vivo interferon-γ ELISPOT assay after peptide immunization). Details: AAD mice immunized s.c. with 50 nmol peptide, boosted at 2 weeks; pooled splenocytes of 3 mice; targets pulsed with 1.0 µM (1000 nM) peptide.
Format: in vivo, mouse
Experimental: (§1) Cytokines were purchased from Peprotech (Rocky Hill, NJ). […] For all experiments, groups of three mice were used.
The numbers of IFN-γ secreting cells were determined by an ELISPOT kit (Mouse IFN-gamma ELISpot SixPak; R&D, Minneapolis, […]) or by a set of anti-mouse IFN-γ coating (AN18) and detecting (R4–6A2) monoclonal antibodies (Mabtech) according to the manufacturer’s instructions. Two weeks after the last immunization, spleen cells were plated on antibody-coated plates at 200,000, 100,000 and 50.000 cells/well and stimulated with 200,000 peptide-pulsed naïve spleen cells/well with indicated concentration of peptides for 2 hours. After incubation overnight at 37°C, the plates were washed and detecting antibody was added. An ELISPOT blue color module (R&D) was used for color development. The spots were read by an ELISPOT reader (AID). All samples were analyzed in triplicate.

Sequence | IFN-γ response (ELISPOT) after stimulation with the immunizing peptide
KILEEIESV [POTE 553–561] | did not induce any significant IFN-γ responses
YLMAKALLL [POTE 252-1Y] | no significant IFN-γ responses were detected
LLLEQNVDV [POTE 323–331] | only marginal IFN-γ responses
KLLEEIESV [POTE 553-2L] | induced some level of IFN-γ responses only after stimulation with the same peptide
KLMAKALLL [POTE 252–260] | induced a significant number of IFN-γ spots
LLFEQNVDV [POTE 323-3F] | induced significant IFN-γ spots
YILEEIESV [POTE 553-1Y] | induced some level of IFN-γ responses only after stimulation with the same peptide
KLMAKALLV [POTE 252-9V] | induced a significant number of IFN-γ spots
GLTPLLLGV [POTE 272–280] | induced significant IFN-γ responses

Same assay, conditions: AAD mice immunized with 50 nmol peptide; targets pulsed with 1000 nM peptide

Sequence | IFN-γ response over background level (ELISPOT)
LLLEQNVDV [POTE 323–331] | less than 2 fold

Same assay, conditions: AAD mice immunized with enhanced peptide; stimulation with wild type peptide

Sequence | cross-reactive IFN-γ response (ELISPOT) to wild type peptide
KLLEEIESV [POTE 553-2L] | no cross-reactive response to wild type peptide was detected
LLFEQNVDV [POTE 323-3F] | some degree of IFN-γ response was also detected
YILEEIESV [POTE 553-1Y] | no cross-reactive response to wild type peptide was detected
KLMAKALLV [POTE 252-9V] | cross-reactivity to both POTE 252 and POTE 252-9V

Each sequence was assayed on C1R.AAD cells pulsed with peptides (assay: 4-h 51Cr release CTL assay on peptide-pulsed targets after one week in vitro stimulation). Details: CTLs from immunized AAD mice after one week in vitro stimulation with cognate peptide (1.0 µM), targets pulsed with 1.0 µM peptide.
Format: cell-based, human
Source text: as §1

Sequence | CTL lysis of peptide-pulsed target cells
KILEEIESV [POTE 553–561] | not any significant detectable target cell lysis
LLLEQNVDV [POTE 323–331] | failed to lyse target cells pulsed with POTE 323
KLLEEIESV [POTE 553-2L] | did not lyse target cells pulsed with POTE 553-2L
KLMAKALLL [POTE 252–260] | lysed target cells pulsed with the wild type POTE 252 as well as POTE 252-9V
LLFEQNVDV [POTE 323-3F] | lysed target cells pulsed with the POTE 323-3F, as well as wild type POTE 323
YILEEIESV [POTE 553-1Y] | lysed target cells pulsed with not only POTE 553-1Y, but also POTE 553 and POTE 553-2L peptides
KLMAKALLV [POTE 252-9V] | lysed target cells pulsed with the wild type POTE 252 as well as POTE 252-9V
GLTPLLLGV [POTE 272–280] | lysed target cells pulsed with POTE 272

What follows are sequences tested on HHD-2 mice (assay: HLA-A2/peptide tetramer staining and TCR Vβ repertoire of CD8+ T cells). Details: HHD-2 mice immunized with the peptide; HLA-A2/peptide tetramer staining, Figure 2C.
Format: in vivo, mouse
Source text: as §1
Tetrameric MHC class I/peptide complexes obtained from the NIH Tetramer Facility were synthesized as described previously, [25]. Briefly, purified single-chain HLA-A2 molecules were synthesized by a prokaryotic expression system (pET; R&D Systems, Minneapolis, MN). The heavy chain was modified containing the Bir-A enzymatic biotinylation site. Single-chain heavy chain-β2-microglobulin and peptide were refolded by dilution into a redoxshuffling buffer system. The refolded product was biotinylated by Bir-A in the presence of […] (Avidity, Denver, CO). Streptavidin-Phycoerythrin conjugate (Jackson ImmunoResearch, West Grove, PA) was added in a 1∶4 molar ratio. Per-CP labeled anti-mouse CD8 antibody (BD Pharmingen) and TCR Vβ screening panel (BD Pharmingen) were used to detect the TCR repertoire of the CTLs.

Sequence | tetramer-positive CD8+ T cells [%]
KLMAKALLL [POTE 252–260] | 9.3
KLMAKALLV [POTE 252-9V] | 6.8

Same assay, conditions: HHD-2 mice immunized with the peptide; TCR Vβ screening panel, Figure 2D

Sequence | CD8+tetramer+ T cells positive for Vβ10
KLMAKALLV [POTE 252-9V] | about 80%
